Results on 6 compounds are retold here after PMC4772116 (Scientific Reports, 2016).

As a reminder, the pIC50 is the negative decadic logarithm of the IC50, by convention in mol/L. Low readings indicate a high IC50, high ones a low IC50.

pIC50: −log10 of the molar value. Where a SMILES comes first, the peptide text is derived from it. Bridges are numbered along the chain shown (N, C = ends).

In one assay the target is human α3β2 nAChR (Homo sapiens, UniProt P17787+P32297). In words: cell-based. Format: cell-based.
In a further assay the target is human α3β4 nAChR (Homo sapiens, UniProt P30926+P32297). Briefly: cell-based.
The next assay deals with Ac-AChBP (Aplysia californica, UniProt Q8WSF8). Briefly: biochemical. Format: binding.
Chain of Ac-AChBP (Q8WSF8 20-236 limits assumed): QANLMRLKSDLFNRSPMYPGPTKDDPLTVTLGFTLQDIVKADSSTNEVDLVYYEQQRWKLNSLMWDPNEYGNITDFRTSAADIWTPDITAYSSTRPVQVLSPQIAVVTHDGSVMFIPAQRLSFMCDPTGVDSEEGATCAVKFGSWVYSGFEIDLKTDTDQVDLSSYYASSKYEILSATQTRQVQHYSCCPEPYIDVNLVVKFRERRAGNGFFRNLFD

Chain of human α3β2 nAChR (P32297 32-505 limits assumed): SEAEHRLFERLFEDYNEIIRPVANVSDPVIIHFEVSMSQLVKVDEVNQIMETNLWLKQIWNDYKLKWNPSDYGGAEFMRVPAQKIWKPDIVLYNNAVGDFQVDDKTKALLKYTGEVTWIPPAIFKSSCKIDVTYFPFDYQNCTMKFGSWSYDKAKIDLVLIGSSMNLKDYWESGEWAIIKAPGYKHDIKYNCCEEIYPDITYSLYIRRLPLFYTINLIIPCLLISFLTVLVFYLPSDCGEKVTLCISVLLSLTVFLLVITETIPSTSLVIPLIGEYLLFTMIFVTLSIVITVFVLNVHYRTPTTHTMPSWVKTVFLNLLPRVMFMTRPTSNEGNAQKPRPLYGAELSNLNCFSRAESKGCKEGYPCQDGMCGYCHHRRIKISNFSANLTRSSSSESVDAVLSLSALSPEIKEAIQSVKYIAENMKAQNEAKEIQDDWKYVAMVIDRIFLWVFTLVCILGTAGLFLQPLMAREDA
Chain of human α3β2 nAChR (P17787 26-502 limits assumed): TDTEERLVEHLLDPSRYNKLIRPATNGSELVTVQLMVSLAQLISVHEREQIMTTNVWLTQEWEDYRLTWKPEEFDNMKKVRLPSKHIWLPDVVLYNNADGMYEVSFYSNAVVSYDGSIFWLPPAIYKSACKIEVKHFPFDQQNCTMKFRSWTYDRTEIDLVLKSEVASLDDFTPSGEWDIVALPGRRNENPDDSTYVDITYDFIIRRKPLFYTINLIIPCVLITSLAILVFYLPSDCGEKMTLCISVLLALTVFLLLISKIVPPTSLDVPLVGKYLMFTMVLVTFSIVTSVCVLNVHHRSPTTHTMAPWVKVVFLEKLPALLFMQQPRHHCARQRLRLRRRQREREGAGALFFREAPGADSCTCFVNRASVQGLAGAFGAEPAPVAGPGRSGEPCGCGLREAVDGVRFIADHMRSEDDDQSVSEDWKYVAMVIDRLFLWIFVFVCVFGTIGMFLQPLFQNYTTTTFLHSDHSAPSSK
Chain of human α3β4 nAChR (P32297 32-505 limits assumed): as the sequence (P32297 32-505 limits assumed) above
Chain of human α3β4 nAChR (P30926 22-498 limits assumed): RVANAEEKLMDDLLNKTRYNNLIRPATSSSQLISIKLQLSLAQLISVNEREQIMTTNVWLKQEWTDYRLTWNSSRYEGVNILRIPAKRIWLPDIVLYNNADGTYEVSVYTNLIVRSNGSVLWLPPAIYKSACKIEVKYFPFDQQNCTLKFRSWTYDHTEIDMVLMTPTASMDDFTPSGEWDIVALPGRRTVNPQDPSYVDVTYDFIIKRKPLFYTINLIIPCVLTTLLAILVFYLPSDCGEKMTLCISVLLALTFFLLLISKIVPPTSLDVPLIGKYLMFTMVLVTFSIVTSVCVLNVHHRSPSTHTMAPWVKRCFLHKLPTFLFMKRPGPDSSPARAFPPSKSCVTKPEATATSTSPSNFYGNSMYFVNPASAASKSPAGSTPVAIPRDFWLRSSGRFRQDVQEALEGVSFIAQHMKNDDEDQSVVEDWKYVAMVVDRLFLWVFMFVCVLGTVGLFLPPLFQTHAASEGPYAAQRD

Regarding `CC[C@H](C)[C@@H]1NC(=O)[C@H](Cc2c[nH]cn2)NC(=O)[C@H](CCC(N)=O)NC(=O)[C@H](CC(N)=O)NC(=O)[C@H](CC(N)=O)NC(=O)CNC(=O)[C@H](C)NC(=O)[C@@H]2CSSC[C@H](NC(=O)CN)C(=O)N[C@@H](CSSC[C@@H](C(N)=O)NC1=O)C(=O)N[C@@H](CO)C(=O)N[C@@H](Cc1c[nH]cn1)C(=O)N1CCC[C@H]1C(=O)NCC(=O)N2` [GIC(A7G)] (H-GCCSHPGCAGNNQHIC-NH2; disulfide 2-8, 3-16), the pIC50 was 5.38 on human α3β2 nAChR and under 5.00 on human α3β4 nAChR.

As for `CC[C@H](C)[C@@H]1NC(=O)[C@H](Cc2c[nH]cn2)NC(=O)[C@H](CCC(N)=O)NC(=O)[C@H](CC(N)=O)NC(=O)[C@H](CC(N)=O)NC(=O)CNC(=O)[C@H](C)NC(=O)[C@@H]2CSSC[C@H](NC(=O)CN)C(=O)N[C@@H](CSSC[C@@H](C(N)=O)NC1=O)C(=O)N[C@@H](CO)C(=O)N[C@@H](Cc1c[nH]cn1)C(=O)N1CCC[C@H]1C(=O)N[C@@H](CC(C)C)C(=O)N2` [GIC(A7L)] (H-GCCSHPLCAGNNQHIC-NH2; disulfide 2-8, 3-16), on human α3β2 nAChR, the “Decrease in the inhibition of α3β2 nAChR versus wild-type GIC” value is given as “more than 10,000 fold” and the pIC50 was under 5.00. The pIC50 against human α3β4 nAChR is under 5.00.

On to `CC[C@H](C)[C@@H]1NC(=O)[C@H](Cc2c[nH]cn2)NC(=O)[C@H](CCC(N)=O)NC(=O)[C@H](CC(N)=O)NC(=O)[C@H](CC(N)=O)NC(=O)CNC(=O)[C@H](C)NC(=O)[C@@H]2CSSC[C@H](NC(=O)CN)C(=O)N[C@@H](CSSC[C@@H](C(N)=O)NC1=O)C(=O)N[C@@H](CO)C(=O)N[C@@H](C)C(=O)N1CCC[C@H]1C(=O)N[C@@H](C)C(=O)N2` [GIC(H5A)] (H-GCCSAPACAGNNQHIC-NH2; disulfide 2-8, 3-16), for which the “Increase in the IC50 value for Ac-AChBP versus wild-type GIC” value on Ac-AChBP is given as about 100 fold. At human α3β2 nAChR, the “Decrease in the inhibition of α3β2 nAChR versus wild-type GIC” value is reported as “more than 10,000 fold” and the pIC50 is under 5.00. Further, at human α3β4 nAChR, the pIC50 is under 5.00.

As for `CC[C@H](C)[C@@H]1NC(=O)[C@H](Cc2c[nH]cn2)NC(=O)[C@H](CCC(N)=O)NC(=O)[C@H](CC(N)=O)NC(=O)[C@H](C)NC(=O)CNC(=O)[C@H](C)NC(=O)[C@@H]2CSSC[C@H](NC(=O)CN)C(=O)N[C@@H](CSSC[C@@H](C(N)=O)NC1=O)C(=O)N[C@@H](CO)C(=O)N[C@@H](Cc1c[nH]cn1)C(=O)N1CCC[C@H]1C(=O)N[C@@H](C)C(=O)N2` [GIC(N11A)] (H-GCCSHPACAGANQHIC-NH2; disulfide 2-8, 3-16), the figures for the pIC50 on human α3β2 nAChR and against human α3β4 nAChR were 5.80 and under 5.00, respectively.

As to `CC[C@H](C)[C@@H]1NC(=O)[C@H](Cc2c[nH]cn2)NC(=O)[C@H](CCC(N)=O)NC(=O)[C@H](C)NC(=O)[C@H](CC(N)=O)NC(=O)CNC(=O)[C@H](C)NC(=O)[C@@H]2CSSC[C@H](NC(=O)CN)C(=O)N[C@@H](CSSC[C@@H](C(N)=O)NC1=O)C(=O)N[C@@H](CO)C(=O)N[C@@H](Cc1c[nH]cn1)C(=O)N1CCC[C@H]1C(=O)N[C@@H](C)C(=O)N2` [GIC(N12A)] (H-GCCSHPACAGNAQHIC-NH2; disulfide 2-8, 3-16), the pIC50 against human α3β2 nAChR was 5.70; on human α3β4 nAChR it was under 5.00.

For `CC[C@H](C)[C@@H]1NC(=O)[C@H](Cc2c[nH]cn2)NC(=O)[C@H](C)NC(=O)[C@H](CC(N)=O)NC(=O)[C@H](CC(N)=O)NC(=O)CNC(=O)[C@H](C)NC(=O)[C@@H]2CSSC[C@H](NC(=O)CN)C(=O)N[C@@H](CSSC[C@@H](C(N)=O)NC1=O)C(=O)N[C@@H](CO)C(=O)N[C@@H](Cc1c[nH]cn1)C(=O)N1CCC[C@H]1C(=O)N[C@@H](C)C(=O)N2` [GIC(Q13A)], the pIC50 at human α3β2 nAChR was 8.08; on human α3β4 nAChR, 6.18.
